Laboratory results reported in patent US8802678B2, “Carbonylated (aza) cyclohexanes as dopamine D3 receptor ligands” (Bioprojet, priority 2006, dated 2014).

What was measured:
human D3 receptor = human D3 receptor (Homo sapiens, UniProt P35462); experiment: [3H]spiperone binding, membranes of CHO cells transfected with human D3 receptor cDNA; settings: affinity for the human D3 receptor; [3H]spiperone 0.5-2 nM, CHO-hD3 membranes, 60 minutes at room temperature
Procedure: Affinity of compounds for the human D3 receptor can be determined by [^3H] spiperone binding CHO cells have been transfected by the cDNA coding for the human D3 receptor (hD3). [^3H]Spiperone (0.5 à 2 nM) binding is performed in the presence of 2.5 to 5 μg of membrane proteins in a medium containing 120 mM NaCl, 5 mM KCl, and 50 mM Tris HCl pH 7.4; incubation for 60 minutes at room temperature is performed. Non specific binding is estimated in the presence of 10 μM haloperidol. Non transfected cells are devoid of any specific binding.

Sequence of human D3 receptor (P35462 whole entry): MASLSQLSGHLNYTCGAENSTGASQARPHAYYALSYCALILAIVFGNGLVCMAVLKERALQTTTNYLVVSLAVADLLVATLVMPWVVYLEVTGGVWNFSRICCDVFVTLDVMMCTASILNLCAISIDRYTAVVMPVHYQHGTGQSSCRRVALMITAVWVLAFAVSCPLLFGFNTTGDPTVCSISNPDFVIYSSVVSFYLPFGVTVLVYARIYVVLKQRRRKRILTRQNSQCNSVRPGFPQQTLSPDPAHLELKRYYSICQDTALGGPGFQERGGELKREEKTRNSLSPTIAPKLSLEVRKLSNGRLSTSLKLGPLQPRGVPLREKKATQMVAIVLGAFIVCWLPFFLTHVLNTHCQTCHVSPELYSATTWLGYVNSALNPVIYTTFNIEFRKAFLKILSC

| SMILES | melting point [°C] | Ki (human D3 receptor) [nM] |
| --- | --- | --- |
| CC(=O)CC1CCC(CCN2CCN(c3ccccc3F)CC2)CC1.Cl (mixture of isomers) [Example 288, 1-(4-{2-[4-(2-Fluorophenyl)-piperazin-1-yl]ethyl}cyclohexyl)-propan-2-one, hydrochloride trans/cis 80/20] | 233 to 236 | 2.1 |
| COCC(=O)N[C@H]1CC[C@H](CCN2CC=C(c3cccc(C)c3C#N)CC2)CC1 [Example 54, N-(4-{2-[4-(2-Cyano-3-methylphenyl)-3,6-dihydro-2H-pyridin-1-yl]ethyl}cyclohexyl)-2-methoxyacetamide] | 158 | 18.3 |
| COCC(=O)NC1CCC(CCN2CCC(c3cccc(C(F)(F)F)c3)CC2)CC1 (mixture of isomers) [Example 61, 2-Methoxy-N-(4-{2-[4-(3-trifluoromethylphenyl)piperidin-1-yl]ethyl}cyclohexyl)acetamide trans/cis 95/5] | 82 | 8.5 |
| N#CCNC(=O)CC1CCC(CCN2CCN(c3ccccc3F)CC2)CC1 (mixture of isomers) [Example 308, N-Cyanomethyl-2-(4-{2-[4-(2-fluorophenyl)piperazin-1-yl]ethyl}cyclohexyl)acetamide trans/cis 90/10] | 164 to 167 | 3.5 |
| NC(=O)CCC(=O)N[C@H]1CC[C@H](CCN2CCN(c3ccccc3)CC2)CC1 [Example 187, N-{4-[2-(4-Phenylpiperazin-1-yl)ethyl]cyclohexyl}succinamide] | 252 | 3.9 |
